Measurements reported in patent US5376638A (Amylin Pharmaceuticals, Inc., priority 1992, dated 1994).
Entries after “also recorded” stand apart in the source; their conditions may differ. Where no end group is shown, it is not given here.

Key:
[1] = mean arterial pressure after amylin injection in rats; assay type: in vivo, Male Harlan Sprague Dawley rats; conditions: 100 μg rat amylin s.c., FIG. 1c
Description: (§1) Male Harlan Sprague Dawley rats were housed at 22.7°±0.8° C. in a 12:12 hour light:dark cycle (experiments being performed during the light cycle) and fed and watered ad libitum (Diet LM-485, Teklad, Madison, Wis.). Animals used were aged 87-94 days and weighed 353-392 g. They were deprived of food for ~20 hours prior to experimentation.
Anesthesia was induced with 5% halothane, maintained at 2% during surgery and at 0.8-1% during recordings. Tracheotomy and cannulation of the right femoral artery and saphenous vein were performed. The femoral arterial line was connected to a pressure transducer (Spectramed P23XL transducer, Model 13-4615-58 amplifier, Gould, Cleveland, Ohio) and perfused with heparinized saline (2 U/ml) at 3.0 ml/hr. Colonic temperature was measured using a thermistor probe and controller (Model 73A, YSI, Yellow Springs, Ohio) which provided closed-loop control of core temperature by switching a heated operating table. The signal for mean arterial pressure was periodically sampled and stored with 12-bit precision at 1 Hz using a computerized data acquisition system (DT2801A A/D converters, DataTranslation, Marlboro, Mass.; AST Premium 386 computer, AST Research, Irvine, Calif.; Labtech Notebook software, Laboratory Technologies Corp, Wilmington, Mass.). […]

[2] = tested on: insulin-stimulated glycogen synthesis in soleus muscle; assay: soleus muscle assay (insulin-stimulated glycogen synthesis); parameters: species or system rat; conditions: for amylin antagonist action in the soleus muscle assay: in the presence of 100 nM rat amylin
Description: Concentrations of peptide dissolved in carrier-free buffers are determined by quantitative amino acid analysis, as described therein. The ability of compounds to act as antagonists in this assay is determined by measuring IC50 values. Standard errors are determined by fitting of sigmoidal dose response curves using a four parameter logistic equation (De Lean, A., Munson, P. J., Guardabasso, V. and Rodbard, D. (1988) ALLFIT, Version 2.7, National Institute of Child Health and Human Development, N.I.H. Bethesda, Md., 1 diskette). […] Similar results were obtained with the other antagonist compounds listed above.

[3] = tested on: amylin-induced hypocalcemia; assay: amylin-induced hypocalcemia with antagonist infusion; assay type: in vivo; conditions: 1.5 mg + 3 mg/hr infusion, FIG. 4
[4] = biological target: T1, vascular CGRP1 receptor (Rattus norvegicus, UniProt Q63118+Q9JJ74); assay: hypotensive response to intravenous amylin in vivo; conditions: three times the dose used in this study
T1 construct: from tissue; host or cells: vasculature of the intact animal (in vivo blood pressure response)
T1 sequence (Q63118 24-464): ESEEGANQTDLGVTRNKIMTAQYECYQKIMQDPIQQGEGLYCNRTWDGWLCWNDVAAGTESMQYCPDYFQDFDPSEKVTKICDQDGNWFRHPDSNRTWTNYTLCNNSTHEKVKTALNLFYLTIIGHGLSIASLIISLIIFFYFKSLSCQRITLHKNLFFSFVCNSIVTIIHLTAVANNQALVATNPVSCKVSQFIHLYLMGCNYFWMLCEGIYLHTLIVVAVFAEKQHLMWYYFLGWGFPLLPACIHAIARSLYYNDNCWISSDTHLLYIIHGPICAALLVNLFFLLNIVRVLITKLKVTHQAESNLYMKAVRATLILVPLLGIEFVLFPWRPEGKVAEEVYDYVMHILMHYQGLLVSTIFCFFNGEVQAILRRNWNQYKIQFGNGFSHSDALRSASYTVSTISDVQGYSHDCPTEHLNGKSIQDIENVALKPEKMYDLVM
T1 sequence (Q9JJ74 27-148 partner): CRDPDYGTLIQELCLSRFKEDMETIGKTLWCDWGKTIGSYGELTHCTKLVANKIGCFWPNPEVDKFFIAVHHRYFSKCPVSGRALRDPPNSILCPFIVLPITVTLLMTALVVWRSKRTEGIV

[5] = tested on: plasma renin activity; assay: plasma renin activity after subcutaneous rat amylin in anesthetized rats; assay type: in vivo, Male Harlan Sprague Dawley rats; conditions: 0.5 mg i.v. bolus + 1 mg/hr infusion before 100 μg s.c. rat amylin, n=1, FIG. 3
Description: as §1
Anesthesia was induced with 5% halothane, maintained at 2% during surgery and at 0.8-1% during recordings. Tracheotomy and cannulation of the right femoral artery and saphenous vein were performed. […] Colonic temperature was measured using a thermistor probe and controller (Model 73A, YSI, Yellow Springs, Ohio) which provided closed-loop control of core temperature by switching a heated operating table. […]
The remainder was frozen at -20° C. for measurement of plasma renin activity. Plasma renin activity was measured using the Gammacoat™ [^125 I] radioimmunoassay kit (Incstar Corp, Stillwater, Minn.) modified to accomodate small sample volumes. The assay system measured the renin-catalysed rate of generation of angiotensin-I in the presence of phenylmethylsulfonyl fluoride (PMSF) to prevent its proteolytic breakdown and/or conversion to angiotensin-II. Angiotensin-I generated in 90 minutes at 37° C. was then detected by specific radioimmunoassay with less than 0.02% cross reactivity to angiotensin-II, angiotensin-III or tetradecapeptide (renin substrate). […]

[6] = biological target: CGRP receptors (Homo sapiens, UniProt O60894+Q16602); assay: affinity for CGRP receptors in vitro; assay type: binding
Sequence of CGRP receptors (Q16602 23-461): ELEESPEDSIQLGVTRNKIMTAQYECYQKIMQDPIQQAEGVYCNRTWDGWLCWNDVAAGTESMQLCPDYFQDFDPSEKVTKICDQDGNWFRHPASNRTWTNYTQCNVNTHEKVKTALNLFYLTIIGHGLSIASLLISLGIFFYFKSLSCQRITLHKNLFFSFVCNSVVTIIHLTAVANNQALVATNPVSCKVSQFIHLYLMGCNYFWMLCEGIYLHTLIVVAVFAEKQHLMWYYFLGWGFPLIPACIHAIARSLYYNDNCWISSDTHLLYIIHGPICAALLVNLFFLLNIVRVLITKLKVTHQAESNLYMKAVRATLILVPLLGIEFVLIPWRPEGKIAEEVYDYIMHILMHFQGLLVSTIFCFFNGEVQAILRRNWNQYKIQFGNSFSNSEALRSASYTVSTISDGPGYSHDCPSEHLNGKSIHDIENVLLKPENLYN
Sequence of CGRP receptors (O60894 27-148 partner): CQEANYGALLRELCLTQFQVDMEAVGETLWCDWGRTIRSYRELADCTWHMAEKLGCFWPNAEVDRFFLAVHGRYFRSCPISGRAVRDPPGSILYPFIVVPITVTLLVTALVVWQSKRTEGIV

[7] = plasma lactate and glucose after subcutaneous rat amylin in anesthetized rats; assay type: in vivo, Male Harlan Sprague Dawley rats; conditions: 0.5 mg i.v. bolus + 1 mg/hr infusion before 100 μg s.c. rat amylin
[8] = fed rats, antagonist preinfusion; cited from earlier work

For “rat amylin: Synthetic rat amylin (Bachem, Torrance, Calif.)”, the “change in mean arterial pressure” value [1] was “lack of change; also recorded: not associated with any significant change”.

In the case of “^8-37 amylin (ATQRLANFLVHSSNNFGAILSSTNVGSNTY; ends and bridges not checked; UniProt P10997 41-70, looked up, fragment) [^ 8-37 amylin, amylin receptor antagonist]”, the “agonist activity in the soleus muscle assay” value (“agonist activity” below) [2] is reported as “negligible agonist activity” and the “amylin antagonist action in the soleus muscle assay” value (from here on “amylin antagonist action”) [2] is reported as “act as amylin antagonists”.

In the case of ^8-32 calcitonin(salmon), the “agonist activity” value [2] is reported as “negligible agonist activity” and the “amylin antagonist action” value [2] is reported as “act as amylin antagonists”.

In the case of “acetyl-^30 Asn^32 Tyr^8-32 calcitonin(salmon)”, the “prevention of amylin-induced hypocalcemia” value [3] is reported as “did not prevent”, the “block of the hypotensive response to intravenous amylin” value [4] is reported as “does not fully block” and the “amylin-induced elevation of plasma renin activity after antagonist preinfusion” value [5] is reported as “no amylin-induced elevation”. For the same substance, the “affinity for CGRP receptors in vitro” value [6] was “low affinity”, the “amylin-induced increase in plasma glucose after antagonist infusion” value [7] was “prevented” and the “amylin-induced increase in plasma lactate after antagonist infusion” value [7] was “prevented”.

In the case of “^8-37 CGRP (VTHRLAGLLSRSGGVVKNNFVPTNVGSKAF; ends and bridges not checked; UniProt P06881 90-119, looked up, fragment) [reference compound]”, the “agonist activity” value [2] is given as “negligible agonist activity”, the “amylin antagonist action” value [2] is given as “act as amylin antagonists” and the “insulin concentration 30 minutes following arginine infusion versus normal controls” value [8] is given as “almost twice as high”.
